Data from patent US10357493B2, “Metalloenzyme inhibitor compounds” (Selenity Therapeutics (Bermuda), Ltd., priority 2017, dated 2019).

Key:
HDAC1 = HDAC1 (Homo sapiens (Human), UniProt Q13547); test: HDAC1 enzymatic assay; format: biochemical; details: read-out: Human HDAC1 IC50
In short: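 Compound inhibition of human HDAC1 (0.5 ng enzyme, 10 uM substrate) was assessed by fluorescence after developer treatment, excitation 360 nm and emission 460 nm. Percent activity was normalized to no-compound (100%) and no-enzyme (0%) controls, plotted against concentration, and fitted to a sigmoidal dose-response curve in Graphpad Prism to obtain IC50 at half-maximal activity.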

HDAC6 = HDAC6 (Homo sapiens (Human), UniProt Q9UBN7); test: HDAC6 enzymatic assay; format: biochemical; details: read-out: Human HDAC6 IC50
In short: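 Following a 17 hour room-temperature incubation of 2 ng HDAC6 with 10 uM substrate and compound, 50 μl developer was added for another 20 minutes, and fluorescence (excitation 360 nm, emission 460 nm) was recorded. Activity was normalized to no-compound (100%) and no-enzyme (0%) wells, and IC50 came from sigmoidal dose-response fitting in Graphpad Prism.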

Sequence of HDAC1 (Q13547 whole entry): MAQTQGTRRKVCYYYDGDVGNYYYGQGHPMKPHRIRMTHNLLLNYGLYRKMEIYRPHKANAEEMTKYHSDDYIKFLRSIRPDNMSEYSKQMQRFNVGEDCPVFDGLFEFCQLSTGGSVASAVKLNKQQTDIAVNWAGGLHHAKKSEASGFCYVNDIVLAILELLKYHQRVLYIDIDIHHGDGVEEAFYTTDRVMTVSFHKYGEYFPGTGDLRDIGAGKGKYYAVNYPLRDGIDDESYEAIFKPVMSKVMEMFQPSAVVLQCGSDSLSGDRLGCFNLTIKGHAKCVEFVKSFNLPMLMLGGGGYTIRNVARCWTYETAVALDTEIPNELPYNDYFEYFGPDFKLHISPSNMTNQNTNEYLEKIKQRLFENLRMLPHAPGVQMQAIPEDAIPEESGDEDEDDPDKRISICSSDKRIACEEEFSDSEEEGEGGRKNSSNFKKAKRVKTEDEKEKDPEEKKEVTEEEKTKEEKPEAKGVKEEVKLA
Sequence of HDAC6 (Q9UBN7 whole entry): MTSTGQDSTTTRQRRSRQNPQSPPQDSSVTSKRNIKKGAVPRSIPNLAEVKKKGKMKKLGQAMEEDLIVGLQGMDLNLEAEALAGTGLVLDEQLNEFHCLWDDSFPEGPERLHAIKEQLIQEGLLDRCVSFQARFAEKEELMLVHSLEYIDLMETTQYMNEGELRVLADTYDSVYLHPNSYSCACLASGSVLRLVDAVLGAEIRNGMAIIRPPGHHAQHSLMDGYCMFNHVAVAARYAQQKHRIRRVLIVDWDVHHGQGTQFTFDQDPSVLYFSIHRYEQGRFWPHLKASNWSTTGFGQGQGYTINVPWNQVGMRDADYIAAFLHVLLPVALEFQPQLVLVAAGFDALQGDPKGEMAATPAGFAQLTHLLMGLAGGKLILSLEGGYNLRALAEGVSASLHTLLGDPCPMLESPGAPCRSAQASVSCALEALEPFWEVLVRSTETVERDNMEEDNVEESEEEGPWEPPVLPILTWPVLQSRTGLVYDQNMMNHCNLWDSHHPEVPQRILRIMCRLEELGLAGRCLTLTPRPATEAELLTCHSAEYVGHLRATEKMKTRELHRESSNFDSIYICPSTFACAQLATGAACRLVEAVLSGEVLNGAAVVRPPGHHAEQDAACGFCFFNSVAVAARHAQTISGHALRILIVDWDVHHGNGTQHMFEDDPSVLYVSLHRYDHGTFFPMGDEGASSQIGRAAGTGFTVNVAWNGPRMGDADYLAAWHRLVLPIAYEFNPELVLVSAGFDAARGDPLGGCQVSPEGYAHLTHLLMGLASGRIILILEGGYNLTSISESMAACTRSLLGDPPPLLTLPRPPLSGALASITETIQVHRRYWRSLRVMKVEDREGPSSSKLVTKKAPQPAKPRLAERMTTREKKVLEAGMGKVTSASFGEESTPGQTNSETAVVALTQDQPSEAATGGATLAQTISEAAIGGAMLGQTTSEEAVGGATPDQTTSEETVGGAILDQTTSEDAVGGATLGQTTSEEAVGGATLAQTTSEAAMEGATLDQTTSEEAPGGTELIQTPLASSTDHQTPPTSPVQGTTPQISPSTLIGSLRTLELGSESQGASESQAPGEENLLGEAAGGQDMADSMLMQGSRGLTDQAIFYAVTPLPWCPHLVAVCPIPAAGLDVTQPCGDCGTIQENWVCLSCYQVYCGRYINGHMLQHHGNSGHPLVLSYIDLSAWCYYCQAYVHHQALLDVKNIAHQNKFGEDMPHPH

IC50 (HDAC1) | IC50 (HDAC6) | SMILES
> 30000 nM | 32 nM | CCCS(=O)(=O)NCC(Nc1ncc(-c2nnc(C(F)F)o2)cn1)c1ccc(F)cc1 (centres unmarked) [Example 111, N-(2-((5-(5-(difluoromethyl)-1,3,4-oxadiazol-2-yl)pyrimidin-2-yl)amino)-2-(4-fluorophenyl)ethyl)propane-1-sulfonamide]
> 30000 nM | 100 nM | Fc1cc(OC(F)(F)F)ccc1C1(Nc2ncc(-c3nnc(C(F)F)o3)cn2)CC1 [Example 70, 5-(5-(difluoromethyl)-1,3,4-oxadiazol-2-yl)-N-(1-(2-fluoro-4-(trifluoromethoxy)phenyl)cyclopropyl)pyrimidin-2-amine]
> 30000 nM | 34 nM | CC(C)(Nc1ncc(-c2nnc(C(F)F)o2)cn1)c1ccc(F)cc1F [Example 97, 5-(5-(difluoromethyl)-1,3,4-oxadiazol-2-yl)-N-(2-(2,4-difluorophenyl)propan-2-yl)pyrimidin-2-amine]
> 30000 nM | 650 nM | CS(=O)(=O)NCC(Nc1ncc(-c2nnc(C(F)F)o2)cn1)c1ccc(F)cc1F (single isomer, unassigned) [103(−), N-(2-((5-(5-(difluoromethyl)-1,3,4-oxadiazol-2-yl)pyrimidin-2-yl)amino)-2-(2,4-difluorophenyl)ethyl)methanesulfonamide]
> 30000 nM | 75 nM | CS(=O)(=O)N(CC(Nc1ncc(-c2nnc(C(F)F)o2)cn1)c1ccc(F)cc1F)CC(F)(F)F (stereo not drawn) [138(+), N-(2-((5-(5-(difluoromethyl)-1,3,4-oxadiazol-2-yl)pyrimidin-2-yl)amino)-2-(2,4-difluorophenyl)ethyl)-N-(2,2,2-trifluoroethyl)methanesulfonamide]
> 30000 nM | 16 nM | FC(F)c1nnc(-c2cnc(NC3(c4cccc(C(F)(F)F)c4)CC3)nc2)o1 [Example 49, 5-(5-(difluoromethyl)-1,3,4-oxadiazol-2-yl)-N-(1-(3-(trifluoromethyl)phenyl)cyclopropyl) pyrimidin-2-amine]
> 30000 nM | 88 nM | Fc1ccc(C2(Nc3ncc(-c4nnc(C(F)F)o4)cn3)CC2)c(C(F)(F)F)c1 [Example 63, 5-(5-(difluoromethyl)-1,3,4-oxadiazol-2-yl)-N-(1-(4-fluoro-2-(trifluoromethyl)phenyl)cyclopropyl) pyrimidin-2-amine]
> 30000 nM | 29 nM | CS(=O)(=O)NCC(Nc1ncc(-c2nnc(C(F)F)o2)cn1)c1ccc(F)cc1 (centres unmarked) [Example 38, N-(2-((5-(5-(difluoromethyl)-1,3,4-oxadiazol-2-yl)pyrimidin-2-yl)amino)-2-(4-fluorophenyl)ethyl)methanesulfonamide]
> 30000 nM | 100 nM | FC(F)c1nnc(-c2cnc(NC3(c4cc(OCC(F)(F)F)ccc4Cl)CC3)nc2)o1 [Example 89, N-(1-(2-chloro-5-(2,2,2-trifluoroethoxy)phenyl)cyclopropyl)-5-(5-(difluoromethyl)-1,3,4-oxadiazol-2-yl)pyrimidin-2-amine]
> 30000 nM | 110 nM | O=S(=O)(C1CC1)N(CC(Nc1ncc(-c2nnc(C(F)F)o2)cn1)c1ccc(F)cc1)CC(F)(F)F (single isomer, unassigned) [165(+), N-(2-((5-(5-(difluoromethyl)-1,3,4-oxadiazol-2-yl)pyrimidin-2-yl)amino)-2-(4-fluorophenyl)ethyl)-N-(2,2,2-trifluoroethyl)cyclopropanesulfonamide]
> 30000 nM | 15 nM | FC(F)c1nnc(-c2cnc(NC3(c4cccc(Cl)c4)CC3)nc2)o1 [Example 51, N-(1-(3-chlorophenyl)cyclopropyl)-5-(5-(difluoromethyl)-1,3,4-oxadiazol-2-yl)pyrimidin-2-amine]
> 30000 nM | 170 nM | O=C(Nc1ccccc1)C(Nc1ncc(-c2nnc(C(F)F)o2)cn1)c1ccc(F)cc1 (centres unmarked) [Example 35, 2-((5-(5-(difluoromethyl)-1,3,4-oxadiazol-2-yl)pyrimidin-2-yl)amino)-2-(4-fluorophenyl)-N-phenylacetamide]
> 30000 nM | 410 nM | Fc1ccc(C(COCC(F)(F)F)Nc2ncc(-c3nnc(C(F)F)o3)cn2)c(F)c1 (single isomer, unassigned) [163(−), 5-(5-(difluoromethyl)-1,3,4-oxadiazol-2-yl)-N-(1-(2,4-difluorophenyl)-2-(2,2,2-trifluoroethoxy)ethyl)pyrimidin-2-amine]
> 30000 nM | 50 nM | CCS(=O)(=O)NCC(Nc1ncc(-c2nnc(C(F)F)o2)cn1)c1ccc(OC(F)(F)F)cc1 (stereo not drawn) [155(+), N-(2-((5-(5-(difluoromethyl)-1,3,4-oxadiazol-2-yl)pyrimidin-2-yl)amino)-2-(4-(trifluoromethoxy)phenyl)ethyl)ethanesulfonamide]
> 30000 nM | 28 nM | FC(F)Oc1cccc(C2(Nc3ncc(-c4nnc(C(F)F)o4)cn3)CC2)c1Cl [Example 86, N-(1-(2-chloro-3-(difluoromethoxy)phenyl)cyclopropyl)-5-(5-(difluoromethyl)-1,3,4-oxadiazol-2-yl)pyrimidin-2-amine]
> 30000 nM | 33 nM | CC(Nc1ncc(-c2nnc(C(F)F)o2)cn1)c1ccc(F)cc1 (centres unmarked) [Example 20, 5-(5-(difluoromethyl)-1,3,4-oxadiazol-2-yl)-N-(1-(4-fluorophenyl)ethyl)pyrimidin-2-amine]
> 30000 nM | 300 nM | Fc1ccc(C(COCC(F)(F)F)Nc2ncc(-c3nnc(C(F)F)o3)cn2)cc1 (single isomer, unassigned) [162(−), 5-(5-(difluoromethyl)-1,3,4-oxadiazol-2-yl)-N-(1-(4-fluorophenyl)-2-(2,2,2-trifluoroethoxy)ethyl)pyrimidin-2-amine]
> 30000 nM | 1100 nM | CS(=O)(=O)NCC(Nc1ncc(-c2nnc(C(F)F)o2)cn1)C1CC1 (single isomer, unassigned) [123(+), N-(2-cyclopropyl-2-((5-(5-(difluoromethyl)-1,3,4-oxadiazol-2-yl)pyrimidin-2-yl)amino)ethyl)methanesulfonamide]
> 30000 nM | 22 nM | FC(F)c1nnc(-c2cnc(NC3(c4ccc(OC(F)(F)F)cc4)CC3)nc2)o1 [Example 54, 5-(5-(difluoromethyl)-1,3,4-oxadiazol-2-yl)-N-(1-(4-(trifluoromethoxy)phenyl)cyclopropyl) pyrimidin-2-amine]
> 30000 nM | 23 nM | FC(F)c1nnc(-c2cnc(NC3(c4cccc(OC(F)(F)F)c4)CC3)nc2)o1 [Example 53, 5-(5-(difluoromethyl)-1,3,4-oxadiazol-2-yl)-N-(1-(3-(trifluoromethoxy)phenyl)cyclopropyl) pyrimidin-2-amine]
> 30000 nM | 550 nM | Fc1ccc(C(CC(F)(F)F)Nc2ncc(-c3nnc(C(F)F)o3)cn2)cc1 (single isomer, unassigned; (-)) [13(−), (−)-5-(5-(difluoromethyl)-1,3,4-oxadiazol-2-yl)-N-(3,3,3-trifluoro-1-(4-fluorophenyl)propyl)pyrimidin-2-amine]
> 30000 nM | 210 nM | FC(F)c1nnc(-c2cnc(NC3(c4cc(C(F)(F)F)ccc4Cl)CC3)nc2)o1 [Example 81, N-(1-(2-chloro-5-(trifluoromethyl)phenyl)cyclopropyl)-5-(5-(difluoromethyl)-1,3,4-oxadiazol-2-yl)pyrimidin-2-amine]
> 30000 nM | 120 nM | CC(Nc1ncc(-c2nnc(C(F)F)o2)cn1)c1ccc(F)cn1 (centres unmarked) [Example 31, 5-(5-(difluoromethyl)-1,3,4-oxadiazol-2-yl)-N-(1-(5-fluoropyridin-2-yl)ethyl)pyrimidin-2-amine]
> 30000 nM | 790 nM | Fc1ccc2c(c1)CCCC2Nc1ncc(-c2nnc(C(F)F)o2)cn1 (centres unmarked) [Example 34, 5-(5-(difluoromethyl)-1,3,4-oxadiazol-2-yl)-N-(6-fluoro-1,2,3,4-tetrahydronaphthalen-1-yl)pyrimidin-2-amine]
> 30000 nM | 41 nM | CN(CC(Nc1ncc(-c2nnc(C(F)F)o2)cn1)c1ccc(OC(F)F)cc1F)S(C)(=O)=O (stereo not drawn) [145(+), N-(2-(4-(difluoromethoxy)-2-fluorophenyl)-2-((5-(5-(difluoromethyl)-1,3,4-oxadiazol-2-yl)pyrimidin-2-yl)amino)ethyl)-N-methylmethanesulfonamide]
> 30000 nM | 50 nM | O=S(=O)(NCC(Nc1ncc(-c2nnc(C(F)F)o2)cn1)c1ccc(F)cc1)c1ccccc1 (centres unmarked) [Example 39, N-(2-((5-(5-(difluoromethyl)-1,3,4-oxadiazol-2-yl)pyrimidin-2-yl)amino)-2-(4-fluorophenyl)ethyl)benzenesulfonamide]
> 30000 nM | 160 nM | O=S(=O)(C1CC1)N(CC(Nc1ncc(-c2nnc(C(F)F)o2)cn1)c1ccc(F)cc1F)CC(F)(F)F (stereo not drawn) [144(+), N-(2-((5-(5-(difluoromethyl)-1,3,4-oxadiazol-2-yl)pyrimidin-2-yl)amino)-2-(2,4-difluorophenyl)ethyl)-N-(2,2,2-trifluoroethyl)cyclopropanesulfonamide]

SMILES | IC50 (HDAC1) | IC50 (HDAC6)
FC(F)c1nnc(-c2cnc(NC3(c4ccc(Br)nc4)CC3)nc2)o1 [Example 64, N-(1-(6-bromopyridin-3-yl)cyclopropyl)-5-(5-(difluoromethyl)-1,3,4-oxadiazol-2-yl)pyrimidin-2-amine] | > 30000 nM | 28 nM
